Assay [1] concerns Staphylococcus aureus (S. aureus) 11540 strain. Kind of assay: Standard microdilution MIC assay, S. aureus. It is filed as cell-based. An outline of the steps:
(§1)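 Broth microdilution per CLSI M7-A8 guidelines, with reference-strain quality control run in the same design; MIC determined per strain. Activity scored +/− against a 16 micrograms/mL cutoff.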

In assay [2] the test system is Escherichia coli strain ATCC25922. Kind of assay: Standard microdilution MIC assay, E. coli. The assay is classed as cell-based. The procedure, abridged: as §1

Each structure is given as a SMILES string.

A word on the MIC: it is the smallest concentration in the dilution series that meets the test's criterion for growth inhibition. Low readings indicate a more susceptible organism, high ones a less susceptible organism. As to `COC[C@H](N)CCCc1cc(OC(F)(F)F)c(F)c(-c2cc3cn(-c4cc(F)c([C@@H]5CCC[C@@H](CCNC(C)=N)N5)c(F)c4)c(=O)nc3[nH]2)c1` [Compound 280], the MIC in assay [1] and in assay [2] was no more than 16 µg/mL throughout.
As to `C=C[C@H](NCCCNC(C)=N)c1ccc(-n2cc3cc(-c4cc(CCC[C@@H](N)C5CC5)cc(Cl)c4F)[nH]c3nc2=O)cc1` [Compound 266], the MIC in assay [1] and in assay [2] was no more than 16 µg/mL each time.
For the compound `C[C@H](N)CCCc1cc(Cl)c(F)c(-c2cc3cn(-c4ccc([C@@H](C)NCCCNC(=N)CF)c(F)c4)c(=O)nc3[nH]2)c1` [Compound 114], the MIC in assay [1] and in assay [2] was no more than 16 µg/mL in each case.
As for `CC(=N)NCC[C@@H]1COC[C@@H](c2ccc(-n3cc4cc(-c5cc(CCC(C)(C)CN)cc(Cl)c5F)[nH]c4nc3=O)cc2)N1` [Compound 71], the MIC in assay [1] and in assay [2] was no more than 16 µg/mL each time.
On to `C=C[C@H](N)CCCc1cc(-c2cc3cn(-c4ccc([C@@H]5CCC[C@@H](CCNC(C)=N)N5CCCF)c(F)c4)c(=O)nc3[nH]2)cc(C(F)(F)F)c1` [Compound 349], for which the minimal inhibitory concentration (MIC) in assay [1] and in assay [2] was no more than 16 µg/mL each time.
In the case of `C=C[C@@H](CCNC(C)=N)NCc1ccc(-n2cc3cc(-c4cc(CCC[C@@H](N)CC#N)cc(Cl)c4F)[nH]c3nc2=O)cc1` [Compound 155], the MIC in assay [1] and in assay [2] was no more than 16 µg/mL each time.
Take `C=C[C@H](NCCCNC(C)=N)c1ccc(-n2cc3cc(-c4cc(CCCC(C)(C)N)cc(Cl)c4F)[nH]c3nc2=O)cc1` [Compound 267]: the MIC in assay [1] and in assay [2] was no more than 16 µg/mL throughout.
Regarding `CC(=N)NCCCN[C@@H](CO)c1ccc(-n2cc3cc(-c4cc(CCC[C@@H](N)CF)cc(Cl)c4F)[nH]c3nc2=O)cc1` [Compound 136], the MIC in assay [1] and in assay [2] was no more than 16 µg/mL throughout.
Regarding `C=C[C@@H](CCNC(C)=N)OCc1ccc(-n2cc3cc(-c4cc(CCC[C@H](C)N)cc(Cl)c4F)[nH]c3nc2=O)cc1` [Compound 3], the MIC in assay [1] and in assay [2] was no more than 16 µg/mL each time.
Regarding `CC(=N)NCC[C@@H](NCc1ccc(-n2cc3cc(-c4cc(CCC[C@@H](N)CF)cc(C(F)(F)F)c4F)[nH]c3nc2=O)cc1)C1CC1` [Compound 230], the MIC in assay [1] and in assay [2] was no more than 16 µg/mL each time.
For `C=C[C@H](NCCCNC(C)=N)c1ccc(-n2cc3cc(-c4cc(CCC[C@H](C)N)cc(Cl)c4F)[nH]c3nc2=O)cc1` [Compound 161], the MIC in assay [1] and in assay [2] was no more than 16 µg/mL throughout.
For the compound `C=C[C@H](N)CCCc1cc(Cl)c(F)c(-c2cc3cn(-c4ccc([C@@H]5COC[C@@H](CCNC(=N)CF)N5)cc4)c(=O)nc3[nH]2)c1` [Compound 81], the MIC in assay [1] and in assay [2] was no more than 16 µg/mL in each case.
As for `CC(=N)NCCCN[C@@H](C)c1ccc(-n2cc3cc(-c4cc(CCC[C@@H](N)CO)cc(Cl)c4F)[nH]c3nc2=O)cc1F` [Compound 113], the MIC in assay [1] and in assay [2] was no more than 16 µg/mL each time.
Take `C=C[C@@H](CCNC(=N)CSC)NCc1ccc(-n2cc3cc(-c4cc(CCC[C@H](C)N)cc(Cl)c4F)[nH]c3nc2=O)cc1` [Compound 59]: the MIC in assay [1] and in assay [2] was no more than 16 µg/mL each time.
For the compound `CC(=N)NCC[C@@H]1COC[C@@H](c2ccc(-n3cc4cc(-c5cc(CCC[C@H](C)N)cc(Cl)c5F)[nH]c4nc3=O)cc2)N1` [Compound 47], the MIC in assay [1] and in assay [2] was no more than 16 µg/mL throughout.
For the compound `C=C[C@H](N)CCCc1cc(Cl)c(F)c(-c2cc3cn(-c4ccc(CN[C@@H](CO)CCNC(C)=N)cc4)c(=O)nc3[nH]2)c1` [Compound 83], the MIC in assay [1] and in assay [2] was no more than 16 µg/mL throughout.
Turning to `CC(=N)NCC[C@@H]1CCC[C@@H](c2ccc(-n3cc4cc(-c5cc(CCC[C@@H](N)CO)cc(Cl)c5F)[nH]c4nc3=O)cc2S(C)(=O)=O)N1` [Compound 118], the MIC in assay [1] and in assay [2] was no more than 16 µg/mL in each case.
With `CC(=N)NCCCN[C@@H](C)c1ccc(-n2cc3cc(-c4cc(CCC[C@@H](N)C5CC5)cc(Cl)c4F)[nH]c3nc2=O)cc1F` [Compound 99], the MIC in assay [1] and in assay [2] was no more than 16 µg/mL in each case.
On to `C=C[C@H](N)CCCc1cc(Cl)c(F)c(-c2cc3cn(-c4ccc(CN[C@H](CCNC(C)=N)C5CC5)cc4)c(=O)nc3[nH]2)c1` [Compound 220], for which the MIC in assay [1] and in assay [2] was no more than 16 µg/mL throughout.
With `COc1cc(-n2cc3cc(-c4cc(CCC[C@@H](N)CF)cc(C(F)(F)F)c4F)[nH]c3nc2=O)ccc1[C@@H]1CCC[C@@H](CCNC(C)=N)N1` [Compound 237], the MIC in assay [1] and in assay [2] was no more than 16 µg/mL each time.
Regarding `COC[C@H](N)CCCc1cc(OC(F)(F)F)c(F)c(-c2cc3cn(-c4ccc([C@@H]5CCC[C@@H](CCNC(C)=N)N5)c(C)c4)c(=O)nc3[nH]2)c1` [Compound 238], the MIC in assay [1] and in assay [2] was no more than 16 µg/mL throughout.
Take `C=CC(CCNC(C)=N)NCc1ccc(-n2cc3cc(-c4cc(CCCC(C)(C)N)cc(Cl)c4F)[nH]c3nc2=O)cc1` (stereo not shown) [Compound 6]: the MIC in assay [1] and in assay [2] was no more than 16 µg/mL each time.
As to `CSCC(=N)NCC[C@@H]1CCC[C@@H](c2ccc(-n3cc4cc(-c5cc(CCC[C@H](C)N)cc(Cl)c5F)[nH]c4nc3=O)cc2)N1` [Compound 42], the MIC in assay [1] and in assay [2] was no more than 16 µg/mL in each case.
`C=C[C@@H](N)CCCc1cc(Cl)c(F)c(-c2cc3cn(-c4ccc(C5(NCCCNC(C)=N)CC5)cc4)c(=O)nc3[nH]2)c1` [Compound 144]: the MIC in assay [1] and in assay [2] was no more than 16 µg/mL throughout.
As for `CSc1cc(-n2cc3cc(-c4cc(CCC[C@@H](N)CF)cc(C(F)(F)F)c4)[nH]c3nc2=O)ccc1[C@@H]1CCC[C@@H](CCNC(C)=N)N1` [Compound 203], the MIC in assay [1] and in assay [2] was no more than 16 µg/mL each time.
On to `C=C[C@@H](N)CCCc1cc(Cl)c(F)c(-c2cc3cn(-c4ccc([C@H](CO)NCCCNC(C)=N)cc4)c(=O)nc3[nH]2)c1` [Compound 158], for which the minimum inhibitory concentration (MIC) in assay [1] and in assay [2] was no more than 16 µg/mL each time.
With `C[C@H](N)CCCc1cc(Cl)c(F)c(-c2cc3cn(-c4ccc([C@@H]5CCC[C@@H](CCNC(=N)CCO)N5)cc4)c(=O)nc3[nH]2)c1` [Compound 357], the MIC in assay [1] and in assay [2] was no more than 16 µg/mL each time.
Consider `C=C[C@@H](CCNC(=N)CF)NCc1ccc(-n2cc3cc(-c4cc(CCC[C@@H](N)CO)cc(Cl)c4F)[nH]c3nc2=O)cc1` [Compound 2], for which the minimal inhibitory concentration (MIC) in assay [1] and in assay [2] was no more than 16 µg/mL in each case.
For the compound `CSc1cc(-n2cc3cc(-c4cc(CCC[C@@H](N)C5CC5)cc(C(F)(F)F)c4F)[nH]c3nc2=O)ccc1[C@@H]1CCC[C@@H](CCNC(C)=N)N1` [Compound 251], the MIC in assay [1] and in assay [2] was no more than 16 µg/mL each time.
Consider `CC(=N)NCC[C@H](CO)NCc1ccc(-n2cc3cc(-c4cc(CCC[C@@H](N)CF)cc(Cl)c4F)[nH]c3nc2=O)cc1` [Compound 100], for which the MIC in assay [1] and in assay [2] was no more than 16 µg/mL in each case.
With `CSc1cc(-n2cc3cc(-c4cc(CCC[C@@H](N)C5CC5)cc(C(F)(F)F)c4)[nH]c3nc2=O)cc(F)c1[C@@H]1CCC[C@@H](CCNC(C)=N)N1CCCF` [Compound 337], the MIC in assay [1] and in assay [2] was no more than 16 µg/mL each time.
Turning to `CC(=N)NCC[C@@H]1COC[C@@H](c2ccc(-n3cc4cc(-c5cc(CCCC(C)(C)N)cc(Cl)c5F)[nH]c4nc3=O)cc2)N1` [Compound 68], the MIC in assay [1] and in assay [2] was no more than 16 µg/mL in each case.

The record behind these values is patent US11999739B2, “Antimicrobials methods of making and using the same” (BIOVERSYS AG, priority 2016, dated 2024).
